Compound | melting point [°C]
C[C@@H](S[C@H]1CO[C@H](c2cccc(C(=O)Nc3ccc(C#N)cc3)c2)OC1)[C@](O)(Cn1cncn1)c1ccc(F)cc1F [Example 6, 4′-Cyano-3-[trans-5-[[(1R,2R)-2-(2,4-difluorophenyl)-2-hydroxy-1-methyl-3-(1H-1,2,4-triazol-1-yl)propyl]thio]-1,3-dioxan-2-yl]benzanilide] | 105
C[C@@H](S[C@H]1CO[C@H](c2ccc(C(=O)Nc3c(F)c(F)c(C#N)c(F)c3F)cc2)OC1)[C@](O)(Cn1cncn1)c1ccc(F)cc1F [Example 20, 4′-Cyano-4-[trans-5-[[(1R,2R)-2-(2,4-difluorophenyl)-2-hydroxy-1-methyl-3-(1H-1,2,4-triazol-1-yl)propyl]thio]-1,3-dioxan-2-yl]-2′,3′,5′,6′-tetrafluorobenzanilide] | 182
C[C@@H](C[C@H]1CO[C@H](c2ccc(C(=O)Nc3ccc(C#N)cc3)cc2)OC1)[C@](O)(Cn1cncn1)c1ccc(F)cc1F [Example 4, 4′-Cyano-4-[trans-5-[(2S,3R)-3-(2,4-difluorophenyl)-3-hydroxy-2-methyl-4-(1H-1,2,4-triazol-1-yl)butyl]-1,3-dioxan-2-yl]benzanilide] | 159
C[C@@H](S[C@H]1CO[C@H](c2ccc(C(=O)Nc3nc4ccccc4s3)cc2)OC1)[C@](O)(Cn1cncn1)c1ccc(F)cc1F [Example 28, N-(Benzothiazol-2-yl)-4-[trans-5-[[(1R,2R)-2-(2,4-difluorophenyl)-2-hydroxy-1-methyl-3-(1H-1,2,4-triazol-1-yl)propyl]thio]-1,3-dioxan-2-yl]benzamide] | 107
C[C@@H](S[C@H]1CO[C@H](c2ccc(C(=O)Nc3ccc(C#N)c(Cl)c3)cc2)OC1)[C@](O)(Cn1cncn1)c1ccc(F)cc1F | 115
C[C@@H](S[C@H]1CO[C@H](c2ccc(C(=O)NCc3cccc4ccccc34)cc2)OC1)[C@](O)(Cn1cncn1)c1ccc(F)cc1F [Example 29, 4-[trans-5-[[(1R,2R)-2-(2,4-Difluorophenyl)-2-hydroxy-1-methyl-3-(1H-1,2,4-triazol-1-yl)propyl]thio]-1,3-dioxan-2-yl]-N-[(1-naphthyl)methyl]benzamide] | 97
C[C@@H](S[C@H]1CO[C@H](c2ccc(C(=O)Nc3ccc(C#N)c4ccccc34)cc2)OC1)[C@](O)(Cn1cncn1)c1ccc(F)cc1F [Example 19, N-(4-Cyano-1-naphthyl)-4-[trans-5-[[(1R,2R)-2-(2,4-difluorophenyl)-2-hydroxy-1-methyl-3-(1H-1,2,4-triazol-1-yl)propyl]thio]-1,3-dioxan-2-yl]benzamide] | 109
C[C@@H](S[C@H]1CO[C@H](c2ccc(C(=O)Nc3ccc(OC(F)(F)F)cc3)cc2)OC1)[C@](O)(Cn1cncn1)c1ccc(F)cc1F [Example 12, 4-[trans-5-[[(1R,2R)-2-(2,4-Difluorophenyl)-2-hydroxy-1-methyl-3-(1H-1,2,4-triazol-1-yl)propyl]thio]-1,3-dioxan-2-yl]-4′-(trifluoromethoxy)benzanilide] | 180
CC(=O)Oc1ccc(NC(=O)c2ccc([C@H]3OC[C@H](S[C@H](C)[C@](O)(Cn4cncn4)c4ccc(F)cc4F)CO3)cc2)cc1 [Example 24, 4′-Acetoxy-4-[trans-5-[[(1R,2R)-2-(2,4-difluorophenyl)-2-hydroxy-1-methyl-3-(1H-1,2,4-triazol-1-yl)propyl]thio]-1,3-dioxan-2-yl]benzanilide] | 127
C[C@@H](S[C@H]1CO[C@H](c2ccc(C(=O)Nc3ccc(C#N)cc3)cc2F)OC1)[C@](O)(Cn1cncn1)c1ccc(F)cc1F [Example 5, 4′-Cyano-4-[trans-5-[[(1R,2R)-2-(2,4-difluorophenyl)-2-hydroxy-1-methyl-3-(1H-1,2,4-triazol-1-yl)propyl]thio]-1,3-dioxan-2-yl]-3-fluorobenzanilide] | 110
C[C@@H](S[C@H]1CO[C@H](c2ccc(C(=O)Nc3nccs3)cc2)OC1)[C@](O)(Cn1cncn1)c1ccc(F)cc1F [Example 27, 4-[trans-5-[[(1R,2R)-2-(2,4-Difluorophenyl)-2-hydroxy-1-methyl-3-(1H-1,2,4-triazol-1-yl)propyl]thio]-1,3-dioxan-2-yl]-N-(2-thiazolyl)benzamide] | 108
C[C@@H](S[C@H]1CO[C@H](c2ccc(C(=O)Nc3ccc(C#N)cc3F)cc2)OC1)[C@](O)(Cn1cncn1)c1ccc(F)cc1F [Example 25, 4′-Cyano-2′-fluoro-4-[trans-5-[[(1R,2R)-2-(2,4-difluorophenyl)-2-hydroxy-1-methyl-3-(1H-1,2,4-triazol-1-yl)propyl]thio]-1,3-dioxan-2-yl]benzanilide] | 136
C[C@@H](S[C@H]1CO[C@H](c2ccc(C(=O)Nc3ccc(C#N)c(C#N)c3)cc2)OC1)[C@](O)(Cn1cncn1)c1ccc(F)cc1F [Example 21, 3′,4′-Dicyano-4-[trans-5-[[(1R,2R)-2-(2,4-difluorophenyl)-2-hydroxy-1-methyl-3-(1H-1,2,4-triazol-1-yl)propyl]thio]-1,3-dioxan-2-yl]benzanilide] | 182
C[C@@H](S[C@H]1CO[C@H](c2ccc(C(=O)Nc3ccc(SC(F)(F)F)cc3)cc2)OC1)[C@](O)(Cn1cncn1)c1ccc(F)cc1F [Example 13, 4-[trans-5-[[(1R,2R)-2-(2,4-Difluorophenyl)-2-hydroxy-1-methyl-3-(1H-1,2,4-triazol-1-yl)propyl]thio]-1,3-dioxan-2-yl]-4′-(trifluoromethylthio)benzanilide] | 95

Other lines, results leading:

melting point [°C] | Compound
101 | Cc1ccc(NC(=O)c2ccc([C@H]3OC[C@H](S[C@H](C)[C@](O)(Cn4cncn4)c4ccc(F)cc4F)CO3)cc2)cc1 [Example 14, 4-[trans-5-[[(1R,2R)-2-(2,4-Difluorophenyl)-2-hydroxy-1-methyl-3-(1H-1,2,4-triazol-1-yl)propyl]thio]-1,3-dioxan-2-yl]-4′-methylbenzanilide]
221 | C[C@@H](S[C@H]1CO[C@H](c2ccc(C(=O)Nc3ccc(Br)cc3)cc2)OC1)[C@](O)(Cn1cncn1)c1ccc(F)cc1F [Example 15, 4′-Bromo-4-[trans-5-[[(1R,2R)-2-(2,4-difluorophenyl)-2-hydroxy-1-methyl-3-(1H-1,2,4-triazol-1-yl)propyl]thio]-1,3-dioxan-2-yl]benzanilide]
188 | C[C@@H](S[C@H]1CO[C@H](c2ccc(C(=O)Nc3ccc(CC#N)cc3)cc2)OC1)[C@](O)(Cn1cncn1)c1ccc(F)cc1F [Example 7, 4′-(Cyanomethyl)-4-[trans-5-[[(1R,2R)-2-(2,4-difluorophenyl)-2-hydroxy-1-methyl-3-(1H-1,2,4-triazol-1-yl)propyl]thio]-1,3-dioxan-2-yl]benzanilide]
210 | C[C@@H](S[C@H]1CO[C@H](c2ccc(C(=O)Nc3ccc(C(F)(F)F)cc3)cc2)OC1)[C@](O)(Cn1cncn1)c1ccc(F)cc1F [Example 11, 4-[trans-5-[[(1R,2R)-2-(2,4-Difluorophenyl)-2-hydroxy-1-methyl-3-(1H-1,2,4-triazol-1-yl)propyl]thio]-1,3-dioxan-2-yl]-4′-(trifluoromethyl)benzanilide]
133 | C[C@@H](S[C@H]1CO[C@H](c2ccc(C(=O)Nc3ccncc3)cc2)OC1)[C@](O)(Cn1cncn1)c1ccc(F)cc1F [Example 17, 4-[trans-5-[[(1R,2R)-2-(2,4-Difluorophenyl)-2-hydroxy-1-methyl-3-(1H-1,2,4-triazol-1-yl)propyl]thio]-1,3-dioxan-2-yl]-N-(4-pyridyl)benzamide]
189 | C[C@@H](S[C@H]1CO[C@H](c2ccc(C(=O)Nc3ccc([N+](=O)[O-])cc3)cc2)OC1)[C@](O)(Cn1cncn1)c1ccc(F)cc1F [Example 18]
104 | C[C@@H](S[C@H]1CO[C@H](c2ccc(C(=O)Nc3ccc(F)cc3)cc2)OC1)[C@](O)(Cn1cncn1)c1ccc(F)cc1F [Example 10, 4-[trans-5-[[(1R,2R)-2-(2,4-Difluorophenyl)-2-hydroxy-1-methyl-3-(1H-1,2,4-triazol-1-yl)propyl]thio]-1,3-dioxan-2-yl]-4′-fluorobenzanilide]
210 | C[C@@H](S[C@H]1CO[C@H](c2ccc(C(=O)Nc3ccc(Cl)cc3)cc2)OC1)[C@](O)(Cn1cncn1)c1ccc(F)cc1F [Example 8, 4′-Chloro-4-[trans-5-[[(1R,2R)-2-(2,4-difluorophenyl)-2-hydroxy-1-methyl-3-(1H-1,2,4-triazol-1-yl)propyl]thio]-1,3-dioxan-2-yl]benzanilide]
171 | CC(=O)c1ccc(NC(=O)c2ccc([C@H]3OC[C@H](S[C@H](C)[C@](O)(Cn4cncn4)c4ccc(F)cc4F)CO3)cc2)cc1 [Example 22, 4′-Acetyl-4-[trans-5-[[(1R,2R)-2-(2,4-difluorophenyl)-2-hydroxy-1-methyl-3-(1H-1,2,4-triazol-1-yl)propyl]thio]-1,3-dioxan-2-yl]benzanilide]
176 | C[C@@H](S[C@H]1CO[C@H](c2ccc(C(=O)Nc3ccc(C#N)cc3)cc2)OC1)[C@](O)(Cn1cncn1)c1ccc(F)cc1F [Example 2, 4′-Cyano-4-[trans-5-[[(1R,2R)-2-(2,4-difluorophenyl)-2-hydroxy-1-methyl-3-(1H-1,2,4-triazol-1-yl)propyl]thio]-1,3-dioxan-2-yl]benzanilide]
230 | C[C@@H](S[C@H]1CO[C@H](c2ccc(C(=O)Nc3ccc(C(N)=O)cc3)cc2)OC1)[C@](O)(Cn1cncn1)c1ccc(F)cc1F [Example 30, 4′-Carbamoyl-4-[trans-5-[[(1R,2R)-2-(2,4-difluorophenyl)-2-hydroxy-1-methyl-3-(1H-1,2,4-triazol-1-yl)propyl]thio]-1,3-dioxan-2-yl]benzanilide]
